Data from article PMC9501633, “Synthesis, Characterisation and Mechanism of Action of Anticancer 3-Fluoroazetidin-2-ones” (Pharmaceuticals, 2022).
One block for each compound: values may come before it.

How the values were obtained:
[1] = system: MCF-7 human breast cancer cells; test: AlamarBlue cell viability assay; format: cell-based; details: for viability at 1 µM / viability at 10 µM / IC50: Homo sapiens, MCF7, 72 h; for viability at 1 µM: MCF-7, 1 μM; for viability at 1 µM / viability at 10 µM: read-out: viable cells remaining; for viability at 10 µM: MCF-7, 10 μM; for IC50: MCF-7, 72 h
Procedure: The antiproliferative potential of the synthesised 3-fluoro β-lactams 26–35 and 3,3-difluoro β-lactams 36–45 was evaluated in MCF-7 human breast cancer cells using the AlamarBlue assay, with CA-4 as reference compound (Figure 3). […] The results for the preliminary in vitro antiproliferative screen for 3-fluoro β-lactam compounds (26–29), which contain different substituents at the para position in the B ring, are presented in Figure 3A.
Cells were seeded at a density of 5 × 10^3 cells/well (MCF-7 and MDA-MB-231) and 1 × 10^4 cells/well (HEK-293T) in 96-well plates (200 μL per well). After 24 h, cells were then treated with medium alone, with vehicle (1% ethanol (v/v)) or with CA-4 or β-lactam compounds at 1 μM and 10 μM concentrations. […] Cell proliferation for MCF-7 cells was analysed with the AlamarBlue assay (Invitrogen Corp.) as previously described by us. After 72 h, AlamarBlue (10% (v/v)) was added to each well, and plates were incubated for 3–5 h at 37 °C in the dark. Fluorescence results were obtained with a 96-well fluorimeter with excitation at 530 nm and emission at 590 nm with results recorded as percentage viability relative to vehicle control (100%). Dose–response curves were obtained and IC50 values (concentration of drug resulting in 50% reduction in cell survival) were calculated using Prism (GraphPad Software, Inc., La Jolla, CA, USA).
Figure 3 Preliminary cell viability data for 3-fluoro and 3,3-difluoro β-lactam compounds. (A) 3-Fluoro β-lactam compounds containing different para-substituent ring B 26–29; 3-fluoro β-lactam compounds containing different meta-substituent ring B 30, 32–35; (B) 3-difluoro β-lactam compounds containing different para-substituent ring B 36–39; 3-difluoro β-lactam compounds containing different meta-substituent ring B 40, 42–45 in MCF-7 breast cancer cells. Cell proliferation of MCF-7 cells was determined with an AlamarBlue assay (seeding density […] for 96-well plates). Compound concentrations of either 10 μM or 1 μM for 72 h were used to treat the cells with control wells containing vehicle ethanol (1% v/v) and CA-4 (10 μM and 1 μM). The mean value for three experiments is shown with the ± S.E.M. for three independent experiments.

SW-480 cells = test: AlamarBlue cell viability assay; format: cell-based; details: SW-480, 10 μM, 72 h
Procedure: Compound # (Treatment Concentration µM) […]
different para-substituent ring B 26-29; 3-fluoro β-lactam compounds containing different meta-substituent ring B 30, 33-35; (B) 3,3-difluoro β-lactam compounds containing different para-substituent ring B 36-39; 3,3-difluoro β-lactam compounds containing different meta-substituent […]
ring B 40, 42-45 in SW-480 cancer cells.
Cell proliferation of MCF-7 cells was determined with an alamarBlue assay (seeding density […]
Compound concentrations of either 10 μM or 1 μM for 72 h were used to treat the cells with control wells containing vehicle ethanol (1%

[2] = Stability in phosphate buffers (HPLC); format: physicochemical
Procedure: (§1) The β-lactam ring is known to undergo hydrolysis/degradation depending on the substituent type on the ring. For example, degradation of monocyclic β-lactam antibiotic aztreonam increased with elevated humidity, temperature and acidic pH buffer. Ezetimibe, a monocyclic β-lactam drug used to reduce blood cholesterol, undergoes degradation and hydrolysis more rapidly in neutral and basic pH conditions than in acidic pH [71]. The stability of representative compounds 33 and 39 was also determined at pH 4, pH 7.4 (plasma) and pH 9 (intestine) by HPLC. […] The electron-withdrawing effect of the 3-fluoro substituent may result in decreasing stability of the β-lactam ring in response to acid hydrolysis.
(§2) The stability study for compounds 33 and 39 was performed using analytical HPLC (Symmetry column (C18, […], 4.6 × 150 mm), dual wavelength absorbance detector (Waters 2487), binary HPLC pump (Waters 1525) and autosampler (Waters 717 plus)) with mobile phase acetonitrile (70%)/water (30%), flow rate 1 mL/min over 15 min and detection at λ 254 nm. Stock solutions of compounds 33 and 39 (1 mg/mL in mobile phase) were used. Dilutions of 0.5 mg/mL, 0.25 mg/mL, 0.125 mg/mL, 0.0625 mg/mL, 0.03125 mg/mL, 0.015625 mg/mL and 0.0078 mg/mL were prepared for the calibration curve. (i) Stability of 33 and 39 in phosphate buffers: The phosphate buffers were prepared in accordance with the British Pharmacopoeia 2020 at pH values 4, 7.4 and 9. Stock solution, 300 µL (1 mg/mL ACN), was added to a vial containing buffer (9.7 mL), mixed and pre-heated to 37 °C. 1 mL of the solution was introduced into an HPLC vial. Samples (10 µL) were injected and analysed at time intervals of t = 0 min, 5 min, 30 min, 60 min and hourly for 24 h. The analysis was performed in triplicate. (ii) Thermal stability: Compounds 33 and 39 (1 mL stock solution) were each placed in a vial for 4 h at 60 °C on a heating block. The sample was then cooled, diluted with acetonitrile and analysed by HPLC. (iii) Photostability study: Compounds 33 and 39 (stock solution, 1 mL) were placed in a vial, exposed to UV light for 4 h and then analysed by HPLC. (iv) Stability in acidic conditions: HCl (0.1 M, 0.2 mL) was added to stock solutions (0.8 mL) of 33 and 39 in a vial. The vial was vortexed and retained at room temperature. A sample was neutralised with NaOH (0.1 M, 0.2 mL) each hour for 4 h and then analysed by HPLC. (v) Stability of 33 and 39 in basic (alkaline) conditions: NaOH (0.1 M, 0.2 mL) was added to stock solution (0.8 mL) in a vial. The vial was vortexed and retained at room temperature. A sample was neutralised with HCl (0.1 M, 0.2 mL) every hour for 4 h then analysed by HPLC. (vi) Stability of 33 and 39 in oxidising conditions: H2O2 (3%, 0.2 mL) was added to the stock solution (0.8 mL). The vial was vortexed to obtain a homogeneous mixture and retained at room temperature, and a sample was analysed by HPLC every hour for 4 h.

[3] = Stability under degradation conditions (HPLC); format: physicochemical
Procedure: as §1, §2

[4] = system: purified bovine brain tubulin; test: Tubulin polymerisation assay (turbidimetric, 340 nm); format: biochemical; details: paclitaxel 10 µM; 33 10 and 30 µM
Procedure: Tubulin polymerisation was investigated using a turbidimetric assay which determines the light scattering by microtubules (absorbance at 340 nm) that is proportional to the microtubule polymer concentration.
Tubulin polymerisation was monitored with purified bovine tubulin using the BK006 kit supplied by Cytoskeleton Inc. (Denver, CO, USA), carried out following the manufacturer’s instructions with the standard assay conditions. Purified (>99%) bovine brain tubulin (3 mg/mL) in a buffer containing PIPES (80 mM, pH 6.9), EGTA (0.5 mM), MgCl2 (2 mM), GTP (1 mM) and glycerol (10%) was incubated at 37 °C in the presence of either vehicle (2% (v/v) ddH2O) or paclitaxel (10 µM), CA-4 (10 μM) or 33 (10 and 30 µM). The effect on tubulin assembly was monitored turbidimetrically at 340 nm in a Spectramax 340 PC spectrophotometer (Molecular Devices, Sunnyvale, CA, USA), with the light scattered depending on the concentration of polymerised microtubules formed. The absorbance was measured at 30 s intervals for 60 min.
Figure 7 Effect of β-lactam compound 33 (10 and 30 µM) and paclitaxel (10 µM) on in vitro tubulin polymerisation. Purified bovine tubulin and GTP were mixed in a 96-well plate. Compounds were added and the reaction was started by warming the solution from 4 to 37 °C. Ethanol (1% v/v) was used as a vehicle control. The effect on tubulin assembly was monitored in a Spectramax 340PC spectrophotometer at 340 nm at 30 s intervals for 30 min at 37 °C. […] Each experiment was performed in duplicate.

MCF-7 cells = test: Immunofluorescence confocal microscopy of the microtubule network; format: cell-based, human; details: MCF-7, 16 h; 33 0.1, 0.5 and 1.0 μM; paclitaxel 1.0 μM; CA-4 0.01 μM
Procedure: The tubulin-targeting effect of compound 33 on the microtubule network of MCF-7 cells was further evaluated by immunofluorescence studies to identify the cellular effects that are relevant to its mechanism of action by inhibiting the polymerisation of tubulin. […] Treatment of MCF-7 cells with compound 33 (0.1, 0.5 and 1.0 μM) induced cell rounding and distinct abnormalities of the spindle formation as well as a loss of the structured tubulin that impacts the microtubule network structure in a dose-dependent manner.
Confocal microscopy was used to determine the effects of novel compound 33 and standard drugs on the MCF-7 cytoskeleton according to the protocols we previously described. For the immunofluorescence study, MCF-7 cells were seeded at 1 × 10^5 cells/mL using eight chamber glass slides (BD Biosciences). The cells were treated with vehicle control (1% ethanol (v/v)), CA-4 (0.01 μM), paclitaxel (1 µM) and 33 (0.1 µM, 0.5 µM and 1 µM) for 16 h. The cells were gently washed in PBS, fixed with 4% paraformaldehyde in PBS (20 min) and permeabilised in 0.5% Triton X-100. After further washes in PBS (containing 0.1% Tween (PBST)), cells were blocked with 5% bovine serum albumin which was diluted with PBST. Cells were incubated with mouse monoclonal anti-α-tubulin–FITC antibody (clone DM1A) (Sigma) (1:100) at 20 °C for 2 h and then washed in PBST and incubated with Alexa Fluor 488 dye (1:500) for 1 h at 20 °C. Cells were washed in PBST and mounted in Ultra Cruz Mounting Media (Santa Cruz Biotechnology, Santa Cruz, CA, USA) containing 4,6-diamino-2-phenolindol dihydrochloride (DAPI). The images were captured by Leica SP8 confocal microscopy with Leica Application Suite X software. Experiments were performed on three independent occasions and images were collected on the same day using identical parameters.
Figure 8 Compound 33 acts as depolymeriser of the microtubule network of MCF-7 breast cancer cells. Cells were treated with vehicle control ([…]), CA-4 (0.01 μM), paclitaxel (1 μM) or compound 33 (0.1, 0.5 and 1 μM) for 16 h. […]

IC50 [1]: 312 nM
Compound: COc1ccc(C2C(F)C(=O)N2c2cc(OC)c(OC)c(OC)c2)cc1 (stereo not shown) [Compound 26, 3-Fluoro-4-(4-methoxyphenyl)-1-(3,4,5-trimethoxyphenyl)azetidin-2-one]
viability at 1 µM ([1]; 72 h): > 70%
viability at 10 µM ([1]; 72 h): 40%
cells remaining (SW-480 cells): 58%

Compound: CCOc1ccc(C2C(F)C(=O)N2c2cc(OC)c(OC)c(OC)c2)cc1 (stereo not shown) [Compound 27, 4-(4-Ethoxyphenyl)-3-fluoro-1-(3,4,5-trimethoxyphenyl)azetidin-2-one]
viability at 1 µM ([1]; 72 h): > 70%
viability at 10 µM ([1]; 72 h): 46%

Compound: COc1cc(N2C(=O)C(F)C2c2ccc(SC)cc2)cc(OC)c1OC (stereo not shown) [Compound 28, 3-Fluoro-4-(4-(methylthio)phenyl)-1-(3,4,5-trimethoxyphenyl)azetidin-2-one]
viability at 1 µM ([1]; 72 h): > 70%
viability at 10 µM ([1]; 72 h): 47%

Compound: CCSc1ccc(C2C(F)C(=O)N2c2cc(OC)c(OC)c(OC)c2)cc1 (stereo not shown) [Compound 29, 4-(4-(Ethylthio)phenyl)-3-fluoro-1-(3,4,5-trimethoxyphenyl)azetidin-2-one]
cell viability ([1]; MCF-7, range over the two concentrations 1 and 10 μM, 72 h): 68–90%
cells remaining (SW-480 cells): 60%

remaining at 24 h, 0.03 mg/mL ([2]; phosphate buffer pH 4, 37 °C): 39%
remaining at 24 h, 0.03 mg/mL ([2]; phosphate buffer pH 7.4, 37 °C): 50%
remaining at 24 h, 0.03 mg/mL ([2]; phosphate buffer pH 9, 37 °C): 19%
remaining at 0.03 mg/mL ([2]; phosphate buffer, pH 11 (as printed in Table S7)): 19%
remaining at 4 h, 0.8 mg/mL ([3]; 0.1 M HCl added to stock solution, acidic (0.1 M HCl)): 54%
remaining at 4 h, 0.8 mg/mL ([3]; 0.1 M NaOH added to stock solution, alkaline (0.1M NaOH)): 60%
remaining at 4 h, 0.8 mg/mL ([3]; 3% H2O2 added to stock solution, oxidative (3% H2O2)): 50%
remaining at 4 h, 1 mg/mL ([3]; stock solution in acetonitrile/water under UV light, UV light): 61%
remaining at 4 h, 1 mg/mL ([3]; stock solution in acetonitrile/water, heated, heat (60 °C)): 82%
Compound: CCSc1ccc(C2N(c3cc(OC)c(OC)c(OC)c3)C(=O)C2(F)F)cc1 (stereo not shown) [Compound 39, 4-(4-(Ethylthio)phenyl)-3,3-difluoro-1-(3,4,5-trimethoxyphenyl)azetidin-2-one]

IC50 [1]: 321 nM
Compound: COc1ccc(C2N(c3cc(OC)c(OC)c(OC)c3)C(=O)C2(F)F)cc1O (stereo not shown) [Compound 42, 3,3-Difluoro-4-(3-hydroxy-4-methoxyphenyl)-1-(3,4,5-trimethoxyphenyl)azetidin-2-one]
viability at 1 µM ([1]; 72 h): 17%
viability at 10 µM ([1]; 72 h): 37%
cells remaining (SW-480 cells): 56%

Compound: CC(=O)O[C@H]1C(=O)[C@@]2(C)[C@H]([C@H](OC(=O)c3ccccc3)[C@]3(O)C[C@H](OC(=O)[C@H](O)[C@@H](NC(=O)c4ccccc4)c4ccccc4)C(C)=C1C3(C)C)[C@]1(OC(C)=O)CO[C@@H]1C[C@@H]2O [Paclitaxel, reference compound]
effect on tubulin polymerisation [4]: stabilises the tubulin
effect on the microtubule network (MCF-7 cells): significant stabilisation of microtubules
